We go through six compounds from PMC11352961, “Peptide dendrimers transfecting CRISPR/Cas9 plasmid DNA: optimization and mechanism” (RSC Chemical Biology, 2024).

Series [1] deals with HEK293 cells. As to the kind of experiment: Cell viability by PrestoBlue assay after transfection, HEK cells. It is filed as cell-based. The settings on record: 4 h.
The test system of series [2] is HeLa cells. As to the kind of experiment: Cell viability by PrestoBlue assay after transfection, HeLa cells. The conditions noted are these: 4 h. It is filed as cell-based.

Bridge positions count the residues as written; N and C are the ends. Square brackets hold non-standard residues; d marks the D form. Side chains are listed from the residue outwards. Peptide text beside a SMILES is read from it. I, II: the chains in the order shown. * marks the point of attachment. Stearoyl = CCCCCCCCCCCCCCCCCC(=O)*; Palmitoyl = CCCCCCCCCCCCCCCC(=O)*

As for `CCCCCCCCCCCCCCCCCC(=O)NCCCC[C@@H](NC(=O)[C@@H](CCCCNC(=O)[C@@H](CC(C)C)NC(=O)[C@@H](CCCNC(=N)N)NC(=O)[C@@H](CCCCNC(=O)[C@@H](CC(C)C)NC(=O)[C@@H](CCCNC(=N)N)NC(=O)[C@@H](CCCCNC(=O)[C@@H](CC(C)C)NC(=O)[C@H](N)CCCNC(=N)N)NC(=O)[C@@H](CC(C)C)NC(=O)[C@H](N)CCCNC(=N)N)NC(=O)[C@@H](CC(C)C)NC(=O)[C@@H](CCCNC(=N)N)NC(=O)[C@@H](CCCCNC(=O)[C@@H](CC(C)C)NC(=O)[C@H](N)CCCNC(=N)N)NC(=O)[C@@H](CC(C)C)NC(=O)[C@H](N)CCCNC(=N)N)NC(=O)[C@@H](CC(C)C)NC(=O)[C@@H](CCCNC(=N)N)NC(=O)[C@@H](CCCCNC(=O)[C@@H](CC(C)C)NC(=O)[C@@H](CCCNC(=N)N)NC(=O)[C@@H](CCCCNC(=O)[C@@H](CC(C)C)NC(=O)[C@H](N)CCCNC(=N)N)NC(=O)[C@@H](CC(C)C)NC(=O)[C@H](N)CCCNC(=N)N)NC(=O)[C@@H](CC(C)C)NC(=O)[C@@H](CCCNC(=N)N)NC(=O)[C@@H](CCCCNC(=O)[C@@H](CC(C)C)NC(=O)[C@H](N)CCCNC(=N)N)NC(=O)[C@@H](CC(C)C)NC(=O)[C@H](N)CCCNC(=N)N)C(=O)N[C@H](CS)C(N)=O` [Z22] (I: H-[dR][dL][dK]([dL-dR])[dR][dL][dK][dR][dL][dK][dK](Stearoyl)[dC]-NH2 / II: H-[dR][dL][dK]([dL-dR])[dR][dL][dK][dR][dL] / III: H-[dR][dL][dK]([dL-dR])[dR][dL] / IV: H-[dR][dL][dK]([dL-dR])[dR][dL]; amide I:6-IV:C, I:9-II:C, II:6-III:C), the “% viability HEK cells” value in series [1] is on record as 64 ± 4%. In series [2], the “% viability HeLa cells” value is 92 ± 7%.

With `CCCCCCCCCCCCCCCCCC(=O)NCCCC[C@H](NC(=O)[C@H](CCCCNC(=O)[C@H](CC(C)C)NC(=O)[C@H](CCCNC(=N)N)NC(=O)[C@H](CCCCNC(=O)[C@H](CC(C)C)NC(=O)[C@H](CCCNC(=N)N)NC(=O)[C@H](CCCCNC(=O)[C@H](CC(C)C)NC(=O)[C@@H](N)CCCNC(=N)N)NC(=O)[C@H](CC(C)C)NC(=O)[C@@H](N)CCCNC(=N)N)NC(=O)[C@H](CC(C)C)NC(=O)[C@H](CCCNC(=N)N)NC(=O)[C@H](CCCCNC(=O)[C@H](CC(C)C)NC(=O)[C@@H](N)CCCNC(=N)N)NC(=O)[C@H](CC(C)C)NC(=O)[C@@H](N)CCCNC(=N)N)NC(=O)[C@H](CC(C)C)NC(=O)[C@H](CCCNC(=N)N)NC(=O)[C@H](CCCCNC(=O)[C@H](CC(C)C)NC(=O)[C@H](CCCNC(=N)N)NC(=O)[C@H](CCCCNC(=O)[C@H](CC(C)C)NC(=O)[C@@H](N)CCCNC(=N)N)NC(=O)[C@H](CC(C)C)NC(=O)[C@@H](N)CCCNC(=N)N)NC(=O)[C@H](CC(C)C)NC(=O)[C@H](CCCNC(=N)N)NC(=O)[C@H](CCCCNC(=O)[C@H](CC(C)C)NC(=O)[C@@H](N)CCCNC(=N)N)NC(=O)[C@H](CC(C)C)NC(=O)[C@@H](N)CCCNC(=N)N)C(=O)N[C@@H](CS)C(N)=O` [Z24] (I: H-RLK([Leu-Arg])RLKRLKK(Stearoyl)C-NH2 / II: H-RLK([Leu-Arg])RLKRL / III: H-RLK([Leu-Arg])RL / IV: H-RLK([Leu-Arg])RL; amide I:6-IV:C, I:9-II:C, II:6-III:C), the “% viability HEK cells” value in series [1] came out at 86 ± 1%. Moreover, the “% viability HeLa cells” value in series [2] is reported as 91 ± 6%.

On to `CCCCCCCCCCCCCCCCCC(=O)NCCCC[C@H](NC(=O)[C@H](CCCCNC(=O)[C@H](CC(C)C)NC(=O)[C@H](CCCNC(=N)N)NC(=O)[C@H](CCCCNC(=O)[C@H](CC(C)C)NC(=O)[C@H](CCCNC(=N)N)NC(=O)[C@H](CCCCNC(=O)[C@H](CC(C)C)NC(=O)[C@@H](N)CCCNC(=N)N)NC(=O)[C@H](CC(C)C)NC(=O)[C@@H](N)CCCNC(=N)N)NC(=O)[C@H](CC(C)C)NC(=O)[C@H](CCCNC(=N)N)NC(=O)[C@H](CCCCNC(=O)[C@H](CC(C)C)NC(=O)[C@@H](N)CCCNC(=N)N)NC(=O)[C@H](CC(C)C)NC(=O)[C@@H](N)CCCNC(=N)N)NC(=O)[C@H](CC(C)C)NC(=O)[C@H](CCCNC(=N)N)NC(=O)[C@H](CCCCNC(=O)[C@H](CC(C)C)NC(=O)[C@H](CCCNC(=N)N)NC(=O)[C@H](CCCCNC(=O)[C@H](CC(C)C)NC(=O)[C@@H](N)CCCNC(=N)N)NC(=O)[C@H](CC(C)C)NC(=O)[C@@H](N)CCCNC(=N)N)NC(=O)[C@H](CC(C)C)NC(=O)[C@H](CCCNC(=N)N)NC(=O)[C@H](CCCCNC(=O)[C@H](CC(C)C)NC(=O)[C@@H](N)CCCNC(=N)N)NC(=O)[C@H](CC(C)C)NC(=O)[C@@H](N)CCCNC(=N)N)C(=O)N[C@@H](C)C(N)=O` [Z25] (I: H-RLK([Leu-Arg])RLKRLKK(Stearoyl)A-NH2 / II: H-RLK([Leu-Arg])RLKRL / III: H-RLK([Leu-Arg])RL / IV: H-RLK([Leu-Arg])RL; amide I:6-IV:C, I:9-II:C, II:6-III:C), for which the “% viability HEK cells” value in series [1] came out at 85 ± 2%. Also, the “% viability HeLa cells” value in series [2] is recorded as 104 ± 8%.

`CCCCCCCCCCCCCCCCCC(=O)NCCCC[C@@H](NC(=O)[C@@H](CCCCNC(=O)CCCCCCCCCCCCCCCCC)NC(=O)[C@@H](CCCCNC(=O)[C@@H](CC(C)C)NC(=O)[C@@H](CCCCN)NC(=O)[C@@H](CCCCNC(=O)[C@@H](CC(C)C)NC(=O)[C@@H](CCCCN)NC(=O)[C@@H](CCCCNC(=O)[C@@H](CC(C)C)NC(=O)[C@H](N)CCCCN)NC(=O)[C@@H](CC(C)C)NC(=O)[C@H](N)CCCCN)NC(=O)[C@@H](CC(C)C)NC(=O)[C@@H](CCCCN)NC(=O)[C@@H](CCCCNC(=O)[C@@H](CC(C)C)NC(=O)[C@H](N)CCCCN)NC(=O)[C@@H](CC(C)C)NC(=O)[C@H](N)CCCCN)NC(=O)[C@@H](CC(C)C)NC(=O)[C@@H](CCCCN)NC(=O)[C@@H](CCCCNC(=O)[C@@H](CC(C)C)NC(=O)[C@@H](CCCCN)NC(=O)[C@@H](CCCCNC(=O)[C@@H](CC(C)C)NC(=O)[C@H](N)CCCCN)NC(=O)[C@@H](CC(C)C)NC(=O)[C@H](N)CCCCN)NC(=O)[C@@H](CC(C)C)NC(=O)[C@@H](CCCCN)NC(=O)[C@@H](CCCCNC(=O)[C@@H](CC(C)C)NC(=O)[C@H](N)CCCCN)NC(=O)[C@@H](CC(C)C)NC(=O)[C@H](N)CCCCN)C(N)=O` [Z27] (I: H-[dK][dL][dK]([dL-dK])[dK][dL][dK][dK][dL][dK][dK](Stearoyl)[dK](Stearoyl)-NH2 / II: H-[dK][dL][dK]([dL-dK])[dK][dL][dK][dK][dL] / III: H-[dK][dL][dK]([dL-dK])[dK][dL] / IV: H-[dK][dL][dK]([dL-dK])[dK][dL]; amide I:6-IV:C, I:9-II:C, II:6-III:C): the “% viability HEK cells” value in series [1] is 74.8 ± 0.7%. For the same compound, in series [2], the “% viability HeLa cells” value is 94 ± 5%.

`CC(C)C[C@@H](NC(=O)[C@@H](CC(C)C)NC(=O)[C@@H](CC(C)C)NC(=O)[C@@H](CC(C)C)NC(=O)[C@@H](CC(C)C)NC(=O)[C@@H](CCCCNC(=O)[C@@H](CC(C)C)NC(=O)[C@@H](CCCCN)NC(=O)[C@@H](CCCCNC(=O)[C@@H](CC(C)C)NC(=O)[C@@H](CCCCN)NC(=O)[C@@H](CCCCNC(=O)[C@@H](CC(C)C)NC(=O)[C@H](N)CCCCN)NC(=O)[C@@H](CC(C)C)NC(=O)[C@H](N)CCCCN)NC(=O)[C@@H](CC(C)C)NC(=O)[C@@H](CCCCN)NC(=O)[C@@H](CCCCNC(=O)[C@@H](CC(C)C)NC(=O)[C@H](N)CCCCN)NC(=O)[C@@H](CC(C)C)NC(=O)[C@H](N)CCCCN)NC(=O)[C@@H](CC(C)C)NC(=O)[C@@H](CCCCN)NC(=O)[C@@H](CCCCNC(=O)[C@@H](CC(C)C)NC(=O)[C@@H](CCCCN)NC(=O)[C@@H](CCCCNC(=O)[C@@H](CC(C)C)NC(=O)[C@H](N)CCCCN)NC(=O)[C@@H](CC(C)C)NC(=O)[C@H](N)CCCCN)NC(=O)[C@@H](CC(C)C)NC(=O)[C@@H](CCCCN)NC(=O)[C@@H](CCCCNC(=O)[C@@H](CC(C)C)NC(=O)[C@H](N)CCCCN)NC(=O)[C@@H](CC(C)C)NC(=O)[C@H](N)CCCCN)C(N)=O` [Z28] (I: H-[dK][dL][dK]([dL-dK])[dK][dL][dK][dK][dL][dK][dL][dL][dL][dL][dL]-NH2 / II: H-[dK][dL][dK]([dL-dK])[dK][dL][dK][dK][dL] / III: H-[dK][dL][dK]([dL-dK])[dK][dL] / IV: H-[dK][dL][dK]([dL-dK])[dK][dL]; amide I:6-IV:C, I:9-II:C, II:6-III:C): the “% viability HEK cells” value in series [1] is on record as 103 ± 0.2%. Also, in series [2], the “% viability HeLa cells” value is recorded as 101 ± 7%.

With `CCCCCCCCCCCCCCCC(=O)NCCCC[C@@H](NC(=O)[C@@H](CCCCNC(=O)[C@@H](CC(C)C)NC(=O)[C@@H](CCCCN)NC(=O)[C@@H](CCCCNC(=O)[C@@H](CC(C)C)NC(=O)[C@@H](CCCCN)NC(=O)[C@@H](CCCCNC(=O)[C@@H](CC(C)C)NC(=O)[C@H](N)CCCCN)NC(=O)[C@@H](CC(C)C)NC(=O)[C@H](N)CCCCN)NC(=O)[C@@H](CC(C)C)NC(=O)[C@@H](CCCCN)NC(=O)[C@@H](CCCCNC(=O)[C@@H](CC(C)C)NC(=O)[C@H](N)CCCCN)NC(=O)[C@@H](CC(C)C)NC(=O)[C@H](N)CCCCN)NC(=O)[C@@H](CC(C)C)NC(=O)[C@@H](CCCCN)NC(=O)[C@@H](CCCCNC(=O)[C@@H](CC(C)C)NC(=O)[C@@H](CCCCN)NC(=O)[C@@H](CCCCNC(=O)[C@@H](CC(C)C)NC(=O)[C@H](N)CCCCN)NC(=O)[C@@H](CC(C)C)NC(=O)[C@H](N)CCCCN)NC(=O)[C@@H](CC(C)C)NC(=O)[C@@H](CCCCN)NC(=O)[C@@H](CCCCNC(=O)[C@@H](CC(C)C)NC(=O)[C@H](N)CCCCN)NC(=O)[C@@H](CC(C)C)NC(=O)[C@H](N)CCCCN)C(N)=O` [Z29] (I: H-[dK][dL][dK]([dL-dK])[dK][dL][dK][dK][dL][dK][dK](Palmitoyl)-NH2 / II: H-[dK][dL][dK]([dL-dK])[dK][dL][dK][dK][dL] / III: H-[dK][dL][dK]([dL-dK])[dK][dL] / IV: H-[dK][dL][dK]([dL-dK])[dK][dL]; amide I:6-IV:C, I:9-II:C, II:6-III:C), the “% viability HEK cells” value in series [1] was 87 ± 1%. Also, the “% viability HeLa cells” value in series [2] is reported as 95 ± 5%.
